Patent US20210154208A1, “Method to Identify Agents That Can Overcome Inhibition Caused By Drug-protein Binding of the Human Plasma Protein, Alpha-1-acid Glycoprotein” (The Johns Hopkins University, priority 2019, published 2021)
Values belong to the molecule of their own block, whether it stands above or below them.

Legend:
[1] = system: MOLM-14 cells; test: Modified plasma inhibition assay (PIA), MTT proliferation in 50% human plasma; type: cell-based; settings: MOLM-14, 48 hours; for fold inhibition (increase in IC50) in the presence of 50% human plasma: MTT, 50% human plasma vs 10% FBS
Protocol: (§1) In the original plasma inhibitory assay (PIA), FLT3/ITD-expressing cells are co-incubated with plasma samples from patients receiving a FLT3 TKI, and Western blotting analysis of FLT3 auto-phosphorylation is used to measure the extent of FLT3 inhibitory activity present in their plasma.(9) This can then be compared to total plasma drug levels to determine the relative efficacy of a drug in vivo compared to its activity in vitro. […] To model these effects in the pre-clinical setting, we modified the PIA assay. Whereas the PIA was designed to assess in vivo drug activity with regards to a specific target (e.g.: inhibition of FLT3 auto-phosphorylation by TKI), the modified PIA is similarly cell-based, but measures the clinically relevant biological end-points of cytotoxicity and proliferation inhibition, instead of target inhibition. In the modified assay, FLT3/ITD cell lines are cultured in the presence of human plasma or purified human plasma proteins and treated with a range of concentrations of the drug of interest. […] Furthermore, like the original PIA, Western blot analysis can be performed on cells treated in this manner to study specific pathways of interest (FIG. 1B). […] The modified PIA utilizes the general endpoint of cytotoxicity.
(§2) Cells in logarithmic growth are resuspended in either human plasma or serum-free RPMI 1640 media supplemented with the plasma protein of interest and seeded in 96-well format at 50 μL per well. Cell density is 2×10^5 cells per well for MOLM-14 and Ba/F3-FLT3/ITD cells. To each well 50 μL of 2× drug dilution in RPMI 1640 media with 10% serum was added. Each condition is plated in quadruplicate. The cells are then incubated at 37° C. After 44 hours of treatment, 10 μL of 5 mg/mL thiazolyl blue tetrazolium bromide (MTT, Sigma) in PBS, sterile-filtered, is added to each well, and the plates are incubated for an additional 4 hours at 37° C. […] Optical absorbance at 570 nm is measured via plate reader (iMark, Bio-Rad), averaging across technical replicates.

[2] = system: MOLM-14 cells; test: Modified PIA, MTT proliferation with purified human AGP; type: cell-based; settings: for inhibition of TKI activity by purified human AGP: MOLM-14, purified human AGP at physiologic concentration (1 mg/mL), sub-physiologic also tested; for ability to displace TKI (TTT-3002, CEP-701) from AGP: MOLM-14, AGP 1.0 mg/mL, increasing doses of competitor, FIG. 13
Protocol: as §1
(§3) Where Δ is the fold-change in IC50, KA is the drug-protein association constant, P0 is the total protein concentration and PA is the drug-bound protein concentration. From this relationship, in the absence of other drug-protein interactions, fold-change is linearly related to drug-free protein concentration. […] When the analysis also takes into account drug-bound protein, these curves can be used to directly measure KA. To that end, we performed the modified PIA using purified AGP against the staurosporine-derived FLT3 TKI, using MOLM-14 cells (FIG. 4A). For comparison, we also assayed the anti-proliferative effects of non-specific protein kinase C inhibition by staurosporine itself in HL-60 cells (FLT3 wild-type AML).
Cells in logarithmic growth are resuspended in either human plasma or serum-free RPMI 1640 media supplemented with the plasma protein of interest and seeded in 96-well format at 50 μL per well. Cell density is 2×10^5 cells per well for MOLM-14 and Ba/F3-FLT3/ITD cells. To each well 50 μL of 2× drug dilution in RPMI 1640 media with 10% serum was added. Each condition is plated in quadruplicate. The cells are then incubated at 37° C. After 44 hours of treatment, 10 μL of 5 mg/mL thiazolyl blue tetrazolium bromide (MTT, Sigma) in PBS, sterile-filtered, is added to each well, and the plates are incubated for an additional 4 hours at 37° C. […] of 10% sodium dodecyl sulfate (JT Baker) in 10 mM hydrochloric acid (Fisher) is then added to each well, and the plates are incubated at 37° C. overnight. Optical absorbance at 570 nm is measured via plate reader (iMark, Bio-Rad), averaging across technical replicates.

[3] = system: FLT3; test: Western blot of FLT3 autophosphorylation and downstream signaling; type: cell-based, human
Protocol: Cells in logarithmic growth are resuspended in either plasma or RPMI 1640 media supplemented with either 10% FBS serum or physiologic concentrations of purified plasma proteins. The cells are cultured for 1 hour at 37° C. in the presence of drug(s) with intermittent shaking. The cells are then washed, lysed with RIPA buffer (Sigma) per manufacturer's protocol, and total cell lysates separated by sodium dodecyl sulfate polyacrylamide gel electrophoresis (Invitrogen) with Western transfer onto polyvinyl difluoride membranes (Millipore). The membranes are probed for FLT3 by using the S-18 antibody (Santa Cruz), or for other proteins using the indicated antibodies (Cell Signaling Technology), followed by horseradish peroxidase-conjugated goat anti-rabbit secondary antibodies with enhanced chemiluminescence detection (Bio-Rad).

[4] = system: Ba/F3-FLT3/ITD-Luc cells; test: Ba/F3-FLT3/ITD-Luc engrafted mouse model with human AGP, bioluminescent imaging; type: in vivo, BALB/c mice; settings: mifepristone by oral gavage during treatment, imaged day 9
Protocol: We transplanted sublethally-irradiated BALB/c mice with Ba/F3-FLT3/ITD-Luc cells (Ba/F3 cells expressing both FLT3/ITD and a luciferase reporter). […] Twenty-four hours after the final treatment (day 9), the mice were again imaged to assess response (FIG. 8C).
BALB/c mice were transplanted after 300 cGy of sublethal X-ray irradiation using a CIXD irradiator (Xstrahl). 5×10^5 Ba/F3-FLT3/ITD-Luc cells were injected via tail vein. Intraperitoneal injections were performed using PBS vehicle with human AGP (Sigma) at 20 mg/mL. […] Mifepristone (Sigma) was dissolved in 50% ethanol and 50% (2-hydroxypropyl)-□-cyclodextrin (Sigma) and administered by oral gavage every 48 hours. Mice were imaged by intraperitoneal injection of luciferin (3 mg) and visualizing on an IVIS Spectrum imager (Caliper LifeSciences) using Living Image software for analysis on day 5 (to monitor engraftment) and on day 9 (to assess drug effect).

[5] = target: AGP (Homo sapiens, UniProt P02763); settings: reported value; cited from earlier work
Sequence of AGP (P02763 19-201): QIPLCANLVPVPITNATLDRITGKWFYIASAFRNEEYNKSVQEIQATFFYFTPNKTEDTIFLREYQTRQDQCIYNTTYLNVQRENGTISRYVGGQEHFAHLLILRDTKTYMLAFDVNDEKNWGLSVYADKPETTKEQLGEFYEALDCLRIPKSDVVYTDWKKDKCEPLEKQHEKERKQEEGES

[6] = system: HL-60 cells; test: Modified PIA with purified AGP, anti-proliferative effect of staurosporine; type: cell-based, human; settings: HL-60 cells (FLT3 wild-type AML)
Text: as §3
as §2, with “C.” for “C. After 44 hours of treatment, 10 μL of 5 mg/mL thiazolyl blue tetrazolium bromide (MTT, Sigma) in PBS, sterile-filtered, is added to each well, and the plates are incubated for an additional 4 hours at 37° C.”

SMILES: CNC(=O)[C@@]1(N)C[C@H]2O[C@]1(C)n1c3ccccc3c3c4c(c5c6ccccc6n2c5c31)C(=O)NC4 [TTT-3002]
effect of human plasma on IC50 ([1]; 50% human plasma vs 10% fetal bovine serum): significantly increased the IC50
fold inhibition (increase in IC50) in the presence of 50% human plasma [1]: 9 fold
fold inhibition by AGP (fold-change in IC50) ([2]; MOLM-14, purified AGP at physiologic concentrations): 30 fold
inhibition of TKI activity by purified human AGP [2]: comparable inhibition to that observed with human plasma
inhibition of FLT3 phosphorylation in the presence of human plasma ([3]; MOLM-14, 1 hour, TKI 10 nM and 100 nM, human plasma): significant decrease in inhibition of FLT3 phosphorylation

SMILES: CN(C)CCC=C1c2ccccc2CCc2ccccc21 [amitriptyline]
ability to displace TKI (TTT-3002, CEP-701) from AGP [2]: cannot displace the more tightly-bound TKI from AGP

SMILES: C[C@]12O[C@H](C[C@]1(O)CO)n1c3ccccc3c3c4c(c5c6ccccc6n2c5c31)CNC4=O [lestaurtinib]
fold inhibition by AGP, predicted ([2]; MOLM-14, purified AGP at physiologic concentrations, predicted): > 1000 fold
shift in IC50 with human AGP ([2]; human AGP): 500 fold

SMILES: CC#C[C@]1(O)CC[C@H]2[C@@H]3CCC4=CC(=O)CCC4=C3[C@@H](c3ccc(N(C)C)cc3)C[C@@]21C [mifepristone]
effect of agent alone on cell growth ([2]; MOLM-14, concentrations of maximal disinhibiting effect): no appreciable effect on cell growth
effect on TTT-3002 dose-response curve in the presence of purified AGP ([2]; MOLM-14, increasing concentrations of mifepristone, TTT-3002 plus AGP): dose-response curve shifted back to that seen in the absence of AGP
effect on TTT-3002 dose-response curves in the absence of AGP ([2]; MOLM-14, no AGP): no impact
restoration of FLT3 inhibition by TTT-3002 in the presence of AGP ([3]; MOLM-14, TTT-3002 (2 nM), inhibiting AGP, increasing mifepristone): dose-dependent restoration of FLT3 inhibition
effect of agent alone on FLT3 autophosphorylation or downstream signaling ([3]; MOLM-14, mifepristone alone): no effect
response of FLT3/ITD-expressing cells (bioluminescence), mifepristone added to midostaurin/AGP [4]: regression of the transplanted cells at levels comparable to those of the midostaurin alone treated mice
KA (association constant with AGP) [5]: 7 to 8 µM⁻¹

fold inhibition (increase in IC50) in the presence of 50% human plasma [1]: 37 fold
SMILES: CC(C)(C)c1cc(NC(=O)Nc2ccc(-c3cn4c(n3)sc3cc(OCCN5CCOCC5)ccc34)cc2)no1 [quizartinib]
inhibition of TKI activity by purified human AGP [2]: not significant inhibited

SMILES: CNC(=O)c1cc(Oc2ccc(NC(=O)Nc3ccc(Cl)c(C(F)(F)F)c3)cc2)ccn1 [sorafenib]
inhibition of TKI activity by purified human AGP [2]: not significant inhibited

SMILES: CN[C@@H]1C[C@H]2O[C@@](C)([C@@H]1OC)n1c3ccccc3c3c4c(c5c6ccccc6n2c5c31)C(=O)NC4 [staurosporine]
anti-proliferative activity in the presence of AGP [6]: no appreciable activity in the presence of AGP until saturating concentrations of drug were used

SMILES: O=C1CCC(N2C(=O)c3ccccc3C2=O)C(=O)N1 (centres unmarked) [thalidomide]
ability to displace TKI (TTT-3002, CEP-701) from AGP [2]: cannot displace the more tightly-bound TKI from AGP
